Reference: BindingDB's records for doi:10.1016/j.bmcl.2003.09.075 (Eli Lilly, 2003)

Columns and labels:
[1] = biological target: NS3 protease (Hepatitis C virus); experiment: Binding affinity towards Protease using PNA assay
[2] = biological target: NS3 protease (Hepatitis C virus); experiment: Inhibitory activity against HCV protease using replicon assay […]
[3] = biological target: NS3 protease (Hepatitis C virus); experiment: Inhibitory activity against Protease using replicon assay […] at 25 uM concentration
[4] = biological target: NS3 protease (Hepatitis C virus); experiment: Inhibitory activity against HCV protease in enzyme inhibition assay

Compound | Ki [1] [nM] | IC50 [2] [nM] | IC50 [3] [nM] | Ki [4] [nM]
CCC[C@H](NC(=O)[C@@H]1[C@H]2CCC[C@H]2CN1C(=O)[C@@H](NC(=O)[C@@H](NC(=O)c1cnccn1)C(C)C)C(C)(C)C)C(=O)C(=O)NC(C)CC (stereo partly drawn) [(1S,5S,6R)-2-((S)-3,3-Dimethyl-2-{(S)-3-methyl-2-[(pyrazine-2-carbonyl)-amino]-butyrylamino}-butyryl)-octahydro-cyclopenta[c]pyrrole-1-carboxylic acid [1-((S)-sec-butylaminooxalyl)-butyl]-amide] | 210 |  | 3480 | 
CC(C)[C@H](NC(=O)c1cnccn1)C(=O)N[C@H](C(=O)N1C[C@@H]2CCC[C@@H]2[C@H]1C(=O)N[C@@H](CC(F)F)C(=O)C(=O)N[C@@H](C)c1ccccc1)C(C)(C)C [(1S,5S,6R)-2-((S)-3,3-Dimethyl-2-{(S)-3-methyl-2-[(pyrazine-2-carbonyl)-amino]-butyrylamino}-butyryl)-octahydro-cyclopenta[c]pyrrole-1-carboxylic acid [3,3-difluoro-1-((S)-(S)-1-phenyl-ethylaminooxalyl)-propyl]-amide] | 120 | 630 |  | 
CC(C)[C@H](NC(=O)c1cnccn1)C(=O)N[C@H](C(=O)N1C[C@@H]2CCC[C@@H]2[C@H]1C(=O)NC(CC(F)F)C(=O)C(=O)NC1CC1)C(C)C (stereo partly drawn) [(1S,5S,6R)-2-((S)-3-Methyl-2-{(S)-3-methyl-2-[(pyrazine-2-carbonyl)-amino]-butyrylamino}-butyryl)-octahydro-cyclopenta[c]pyrrole-1-carboxylic acid (1-cyclopropylaminooxalyl-3,3-difluoro-propyl)-amide] | 220 |  | 3780 | 

Next, values leading:

Ki [1] [nM] | IC50 [2] [nM] | IC50 [3] [nM] | Ki [4] [nM] | Compound
480 | 2610 |  |  | CCC(C)NC(=O)C(=O)[C@H](CC(F)F)NC(=O)[C@@H]1[C@H]2CCC[C@H]2CN1C(=O)[C@@H](NC(=O)[C@@H](NC(=O)c1cnccn1)C(C)C)C(C)(C)C (stereo partly drawn) [(1S,5S,6R)-2-((S)-3,3-Dimethyl-2-{(S)-3-methyl-2-[(pyrazine-2-carbonyl)-amino]-butyrylamino}-butyryl)-octahydro-cyclopenta[c]pyrrole-1-carboxylic acid [1-((S)-sec-butylaminooxalyl)-3,3-difluoro-propyl]-amide]
 | 910 |  | 400 | CC(C)[C@H](NC(=O)c1cnccn1)C(=O)N[C@H](C(=O)N1C[C@@H]2CCC[C@@H]2[C@H]1C(=O)N[C@@H](CC(F)F)C(=O)C(=O)N[C@@H](C)c1ccccc1)C(C)C [(1S,5S,6R)-2-((S)-3-Methyl-2-{(S)-3-methyl-2-[(pyrazine-2-carbonyl)-amino]-butyrylamino}-butyryl)-octahydro-cyclopenta[c]pyrrole-1-carboxylic acid [3,3-difluoro-1-((S)-(S)-1-phenyl-ethylaminooxalyl)-propyl]-amide]
